Values joined by “and” are separate entries in the source; they are usually repeats but may differ in a detail not shown here. Equal values may be shown once.

The target of this assay is NA of B/Tokyo/UT‐AC032/2018 (G407S) (Influenza B virus, UniProt A0A1W5M8K7, G407S). Type of assay: biochemical.

`CCC(CC)O[C@@H]1C=C(C(=O)O)C[C@H](N)[C@H]1NC(C)=O` [Oseltamivir carboxylate]: the “susceptibility to NA inhibitor (in words)” value was “moderately reduced susceptibility”.

Turning to `CC(=O)N[C@H]1[C@H]([C@H](O)[C@H](O)CO)OC(C(=O)O)=C[C@@H]1N=C(N)N` [Zanamivir], the “susceptibility to NA inhibitor (in words)” value was “marked reduction in susceptibility”. In the case of `[H]/N=C(\N)N[C@H]1C=C(C(=O)O)O[C@@H]([C@H](OC)[C@H](O)CO)[C@@H]1NC(C)=O` [Laninamivir], the “susceptibility to NA inhibitor (in words)” value is listed as “marked reduction in susceptibility”. In the case of Peramivir, the “fold differences in IC50” value was 64 fold and 32.1 ± 12.9 (64.2) fold; the “susceptibility to NA inhibitor (in words)” value is reported as “marked reduction in susceptibility”. Moreover, the IC50 – broadly, the concentration that gives 50% inhibition – (read-out: IC50 values of NA inhibitors) was determined as 32.1 nM.
